In patent publication US8541598B2, “Biodegradable solvents for the chemical industry” (Dublin City University, priority 2007, dated 2013):
“Also recorded” adds a separate entry of the source. Read-outs that look alike come from different tables or passages of the source.

Columns and labels:
[1] = Antimicrobial activity / minimum inhibitory concentrations on seven strains of bacteria; assay type: cell-based; conditions: read-out: MIC values
Procedure: (§1) Seven strains of bacteria were used in the assessment of the antimicrobial activity of the ILs claimed: 4 gram negative and three gram positive as shown below.
(§2) A wide concentration range was tested (0-20000 μg/ml). The concentrations screened for antibacterial activity are generally from 2 μg/ml to 1000 μg/ml (Table 6). […] The concentration range screened for the ILs containing ethers was up to 20000 μg/ml. At these high concentrations a lack of antibacterial activity is a significant result.

[2] = test system: Pseudomonas aeruginosa, Escherichia coli, Klebsiella sp., Salmonella sp., Staphylococcus aureus, Enterococcus sp., Bacillus subtilis; experiment: as above; assay type: cell-based; conditions: for toxicity / antibacterial activity in words: seven strains of bacteria; for MIC values: seven strains, not split, range tested 0-20000 μg/ml
Procedure: as §1, §2

[3] = seven strains, not split, range tested 0-20000 μg/ml

Compound | MIC [1, 3] | toxicity / antibacterial activity in words [2] | MIC [1] | toxicity / antibacterial activity in words ([2]; listed as KG 15) | MIC values [2]
COCCOCCOC(=O)Cn1cc[n+](C)c1C.[Br-] [KG18, 2,3-dimethyl-1-(2-[2-methoxyethoxy]ethoxycarbonylmethyl)imidazolium bromide] | > 20 mg/mL | non-toxic |  |  | 
COCCOCCOC(=O)Cn1cc[n+](C)c1.[Br-] [KG12, 3-methyl-1-(2-[2-methoxyethoxy]ethoxycarbonylmethyl)imidazolium bromide] | > 20 mg/mL | non-toxic |  |  | 
CCCCOC(=O)C[n+]1ccn(C)c1 [KG34, 3-methyl-1-(butoxycarbonylmethyl)imidazolium octylsulfate] | 5 mg/mL | non-toxic |  |  | 
COCCOC(=O)C[n+]1ccn(C)c1 [KG36, 3-methyl-1-(2-[2-methoxy]ethoxycarbonylmethyl)imidazolium octylsulfate] | > 20 mg/mL | non-toxic |  |  | 
Cc1n(C)cc[n+]1CC(=O)N1CCCC1 [KG404, 2,3-dimethyl-1-(pyrrolidinylcarbonylmethyl)imidazolium octylsulfate, reference compound] | > 20 mg/mL |  |  |  | 
CCC(C)OCCOC(=O)Cn1cc[n+](C)c1.[Br-] (stereo not shown) [KG10, 3-methyl-1-(2-[2-butoxy]ethoxycarbonylmethyl)imidazolium bromide] | > 20 mg/mL | non-toxic |  |  | 
CCCOCCOC(=O)C[n+]1ccn(C)c1 [KG38, 3-methyl-1-(2-[2-propoxy]ethoxycarbonylmethyl)imidazolium octylsulfate] | > 20 mg/mL | non-toxic |  |  | 
CCCOCCOCCOC(=O)Cn1cc[n+](C)c1.[Br-] [KG14, 3-methyl-1-(2-[2-propoxyethoxy]ethoxycarbonylmethyl)imidazolium bromide] | > 20 mg/mL | non-toxic |  |  | 
CCOCCOC(=O)Cn1cc[n+](C)c1.[Br-] [KG8, 3-methyl-1-(2-[2-ethoxy]ethoxycarbonylmethyl)imidazolium bromide] | > 20 mg/mL | non-toxic |  |  | 
COCCOCCOC(=O)C[n+]1ccn(C)c1C [KG45, 2,3-dimethyl-1-(2-[2-methoxyethoxy]ethoxycarbonylmethyl)imidazolium octylsulfate] |  | non-toxic | 10 mg/mL |  | 
COCCOCCOC(=O)C[n+]1ccn(C)c1 [KG40, 3-methyl-1-(2-[2-methoxyethoxy]ethoxycarbonylmethyl)imidazolium octylsulfate] | > 20 mg/mL | non-toxic |  |  | 
Cn1cc[n+](CC(=O)N2CCCC2)c1 [KG403, 3-methyl-1-(pyrrolidinylcarbonylmethyl)imidazolium octylsulfate, reference compound] | > 20 mg/mL |  |  |  | 
CCCOCCOCCOC(=O)C[n+]1ccn(C)c1 [KG42, 3-methyl-1-(2-[2-propoxyethoxy]ethoxycarbonylmethyl)imidazolium octylsulfate] | > 20 mg/mL | non-toxic |  |  | 
CCC(C)OCCOC(=O)Cn1cc[n+](C)c1C.[Br-] (stereo not shown) [KG16, 2,3-dimethyl-1-(2-[2-butoxy]ethoxycarbonylmethyl)imidazolium bromide] |  | non-toxic | > 20 mg/mL |  | 
CCCCCOC(=O)Cn1cc[n+](C)c1.[Br-] [KG17, 3-Methyl-1-(pentoxycarbonylmethyl) imidazolium bromide] | > 20 mg/mL |  |  |  | 
CC(C)OCCOC(=O)Cn1cc[n+](C)c1.[Br-] [KG9, 3-methyl-1-(2-[2-propoxy]ethoxycarbonylmethyl)imidazolium bromide] | > 20 mg/mL | non-toxic |  |  | 

Compound | MIC [1, 3] | toxicity / antibacterial activity in words [2] | MIC [1] | toxicity / antibacterial activity in words ([2]; listed as KG 15) | MIC values [2]
CCOCCOCCOC(=O)Cn1cc[n+](C)c1.[Br-] [KG13, 3-methyl-1-(2-[2-ethoxyethoxy]ethoxycarbonylmethyl)imidazolium bromide] |  | non-toxic | > 20 mg/mL |  | 
CCOCCOC(=O)C[n+]1ccn(C)c1 [KG37, 3-methyl-1-(2-[2-ethoxy]ethoxycarbonylmethyl)imidazolium octylsulfate] | > 20 mg/mL | non-toxic |  |  | 
CCCCOCCOC(=O)C[n+]1ccn(C)c1 [KG39, 3-methyl-1-(2-[2-butoxy]ethoxycarbonylmethyl)imidazolium octylsulfate] | > 20 mg/mL | non-toxic |  |  | 
CCCCOCCOCCOC(=O)C[n+]1ccn(C)c1 [KG43, 3-methyl-1-(2-[2-butoxyethoxy]ethoxycarbonylmethyl)imidazolium octylsulfate] | 10 mg/mL | non-toxic |  |  | 
CCCCOCCOCCOC(=O)Cn1cc[n+](C)c1.[Br-] [KG15, 3-methyl-1-(2-[2-butoxyethoxy]ethoxycarbonylmethyl)imidazolium bromide] | > 20 mg/mL | non-toxic |  | low toxicity | 
CCCCCOC(=O)C[n+]1ccn(C)c1 [KG35, 3-methyl-1-(pentoxycarbonylmethyl)imidazolium octylsulfate] | > 20 mg/mL | non-toxic |  |  | 
CCOCCOCCOC(=O)C[n+]1ccn(C)c1 [KG41, 3-methyl-1-(2-[2-ethoxyethoxy]ethoxycarbonylmethyl)imidazolium octylsulfate] |  | non-toxic | 10 mg/mL |  | 
CCCOCCOC(=O)C[n+]1ccn(C)c1.N#C[N-]C#N [KG77, 3-methyl-1-(2-[2-propoxy]ethoxycarbonylmethyl)imidazolium N(CN)2] |  | non-toxic |  |  | >20000 KG77 μg/ml
COCCN(CCOC)C(=O)C[n+]1ccn(C)c1 [KG405] | > 20 mg/mL | low toxicity; also recorded: non-toxic |  |  | 
3-methyl-1-(2-[2-methoxyethoxy]ethoxycarbonylmethyl)imidazolium BF4 [KG66] |  | non-toxic |  |  | >20000 KG66 μg/ml
COCCOCCOC(=O)Cn1cc[n+](C)c1.N#C[N-]C#N [KG79, 3-methyl-1-(2-[2-methoxyethoxy]ethoxycarbonylmethyl)imidazolium N(CN)2] |  | non-toxic |  |  | >20000 KG79 μg/ml
CCCCOCCOC(=O)C[n+]1ccn(C)c1C [KG44] |  | non-toxic | > 20 mg/mL |  | 
CCCCOC(=O)Cn1cc[n+](C)c1.[Br-] [KG19, 3-Methyl-1-(butoxycarbonylmethyl) imidazolium bromide] | > 20 mg/mL |  |  |  | 
3-methyl-1-(2-[2-ethoxy]ethoxycarbonylmethyl)imidazolium BF4 [KG63] |  | non-toxic |  |  | >20000 KG63 μg/ml
COCCOCCOC(=O)Cn1cc[n+](C)c1.O=S(=O)([N-]S(=O)(=O)C(F)(F)F)C(F)(F)F [KG53, 3-methyl-1-(2-[2-methoxyethoxy]ethoxycarbonylmethyl)imidazolium NTf2] |  | non-toxic |  |  | 10000 KG53 μg/ml
3-methyl-1-(2-[2-methoxy]ethoxycarbonylmethyl)imidazolium PF6 [KG23] |  | non-toxic |  |  | >20000 KG23 μg/ml
